Experimental findings from ChEMBL document CHEMBL3769365, “Discovery of the First Potent and Selective Inhibitors of Human dCTP Pyrophosphatase 1” (J Med Chem, 2016) are described below.

The target in one data set is T1, dCTP pyrophosphatase 1 (Homo sapiens, UniProt Q9H773).
T1 sequence (Q9H773 whole entry): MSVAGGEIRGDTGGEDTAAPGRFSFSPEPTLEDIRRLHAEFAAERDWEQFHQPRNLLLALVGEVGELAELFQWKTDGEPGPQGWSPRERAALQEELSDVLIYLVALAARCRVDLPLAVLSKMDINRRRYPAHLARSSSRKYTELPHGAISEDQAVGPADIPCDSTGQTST
The data set can be described thus: Inhibition of human recombinant full length dCTPase expressed in Escherichia coli BL21(DE3)pLysS using dCTP as substrate after 1 hr by HTS-adapted Malachite Green assay.

A further data set has as its system Liver microsome. Briefly: Half life in human liver microsomes. In kind it is ADME. Background: Liver microsomes are vesicles of endoplasmic reticulum, rich in cytochrome P450 enzymes.
Data set [1] can be described thus: Half life in mouse liver microsomes. In kind it is ADME.
Data set [2] can be described thus: Photostability of compound at room temperature after 5 months by LC/MS analysis. It counts as physicochemical. Particulars: 3652.5 h.
The nature of data set [3]: Mutagenicity in human HL60 cells assessed as Chk1 phosphorylation at S345 by Western blot analysis. It counts as toxicity, cell-based. Particulars: hl-60.
Data set [4] is described as follows: Mutagenicity in human HL60 cells assessed as gammaH2AX foci formation at 2.5 uM after 24 hrs by immunofluorescence staining-based Zeiss LSM-780 confocal microscopy. It counts as toxicity, cell-based. The note with it: hl-60, 24 h.
Data set [5] in a line: Mutagenicity in human HL60 cells assessed as 53BP1 foci formation at 2.5 uM after 24 hrs by immunofluorescence staining-based Zeiss LSM-780 confocal microscopy. The note with it: hl-60, 24 h. It counts as toxicity, cell-based.
Data set [6] in a line: Mutagenicity in human HL60 cells assessed as caspase 3 cleavage by Western blot analysis. The note with it: hl-60. It counts as toxicity, cell-based. A general note: In western blotting, separated proteins are transferred to a membrane and probed.
Data set [7] is described as follows: Aqueous solubility of the compound. It counts as physicochemical. Particulars: buffer.
Data set [8] is described as follows: Metabolic stability of plasma (unknown origin) assessed as compound remaining after 4 hrs. In kind it is ADME, cell-free. Particulars: read-out: Stability.
The nature of data set [9]: Fraction unbound in plasma (unknown origin). In kind it is ADME, cell-free.
Data set [10] can be described thus: Efflux ratio of apparent permeability of the compound. In kind it is ADME.
The target of another data set is T2, Cytochrome P450 1A2 (Homo sapiens, UniProt P05177).
T2 sequence (P05177 whole entry): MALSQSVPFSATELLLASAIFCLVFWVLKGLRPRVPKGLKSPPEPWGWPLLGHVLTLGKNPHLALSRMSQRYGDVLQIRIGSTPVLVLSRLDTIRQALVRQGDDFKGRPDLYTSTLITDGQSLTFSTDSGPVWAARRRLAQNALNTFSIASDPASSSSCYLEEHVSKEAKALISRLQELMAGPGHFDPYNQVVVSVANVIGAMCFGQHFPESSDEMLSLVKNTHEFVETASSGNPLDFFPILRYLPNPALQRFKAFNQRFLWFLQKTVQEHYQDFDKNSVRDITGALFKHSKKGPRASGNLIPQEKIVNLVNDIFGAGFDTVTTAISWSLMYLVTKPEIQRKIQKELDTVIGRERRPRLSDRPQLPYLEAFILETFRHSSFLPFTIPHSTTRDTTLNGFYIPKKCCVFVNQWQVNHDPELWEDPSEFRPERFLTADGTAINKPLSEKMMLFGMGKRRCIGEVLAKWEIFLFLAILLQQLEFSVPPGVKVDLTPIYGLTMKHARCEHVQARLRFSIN
The data set can be described thus: Inhibition of CYP1A2 (unknown origin) using phenacetin as substrate preincubated for 10 mins followed by NADPH addition by LC/MS/MS analysis. It counts as ADME.

The next data set has as its target Cytochrome P450 2C9 (Homo sapiens, UniProt P11712). Briefly: Inhibition of CYP2C9 (unknown origin) using diclofenac as substrate preincubated for 10 mins followed by NADPH addition by LC/MS/MS analysis. It counts as ADME.
Another data set has as its target Cytochrome P450 2C19 (Homo sapiens, UniProt P33261). The data set can be described thus: Inhibition of CYP2C19 (unknown origin) using mephenytoin as substrate preincubated for 10 mins followed by NADPH addition by LC/MS/MS analysis. In kind it is ADME.
The target in a further data set is Cytochrome P450 2D6 (Homo sapiens, UniProt P10635). Briefly: Inhibition of CYP2D6 (unknown origin) using bufuralol as substrate preincubated for 10 mins followed by NADPH addition by LC/MS/MS analysis. In kind it is ADME.
In data set [11] the target is T3, Cytochrome P450 3A4 (Homo sapiens, UniProt P08684). The data set can be described thus: Inhibition of CYP3A4 (unknown origin) using midazolam as substrate preincubated for 10 mins followed by NADPH addition by LC/MS/MS analysis. In kind it is ADME.
The target in data set [12] is T3, Cytochrome P450 3A4. Briefly: Inhibition of CYP3A4 (unknown origin) using testostrone as substrate preincubated for 10 mins followed by NADPH addition by LC/MS/MS analysis. In kind it is ADME.
A short description of data set [13]: Apparent permeability of the compound from apical to basolateral side. It counts as physicochemical.

Converted amounts (≈) assume the structure as drawn. Where only a bound is given, the exact number is not on record here.

T3 sequence (P08684 whole entry): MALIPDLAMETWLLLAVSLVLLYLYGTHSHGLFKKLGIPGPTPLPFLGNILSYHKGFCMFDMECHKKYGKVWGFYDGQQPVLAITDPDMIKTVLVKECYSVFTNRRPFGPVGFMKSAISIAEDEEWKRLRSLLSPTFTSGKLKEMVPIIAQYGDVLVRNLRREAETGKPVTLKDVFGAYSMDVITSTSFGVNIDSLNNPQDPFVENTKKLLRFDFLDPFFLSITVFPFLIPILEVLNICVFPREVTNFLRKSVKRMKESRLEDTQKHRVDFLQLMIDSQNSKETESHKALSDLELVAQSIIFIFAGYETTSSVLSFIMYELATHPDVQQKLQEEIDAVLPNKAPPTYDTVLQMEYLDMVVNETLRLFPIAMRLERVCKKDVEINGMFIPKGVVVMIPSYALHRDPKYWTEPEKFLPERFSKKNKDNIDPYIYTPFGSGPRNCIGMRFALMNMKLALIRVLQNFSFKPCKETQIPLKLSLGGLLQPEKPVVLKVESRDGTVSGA
Sequence of Cytochrome P450 2C9 (P11712 whole entry): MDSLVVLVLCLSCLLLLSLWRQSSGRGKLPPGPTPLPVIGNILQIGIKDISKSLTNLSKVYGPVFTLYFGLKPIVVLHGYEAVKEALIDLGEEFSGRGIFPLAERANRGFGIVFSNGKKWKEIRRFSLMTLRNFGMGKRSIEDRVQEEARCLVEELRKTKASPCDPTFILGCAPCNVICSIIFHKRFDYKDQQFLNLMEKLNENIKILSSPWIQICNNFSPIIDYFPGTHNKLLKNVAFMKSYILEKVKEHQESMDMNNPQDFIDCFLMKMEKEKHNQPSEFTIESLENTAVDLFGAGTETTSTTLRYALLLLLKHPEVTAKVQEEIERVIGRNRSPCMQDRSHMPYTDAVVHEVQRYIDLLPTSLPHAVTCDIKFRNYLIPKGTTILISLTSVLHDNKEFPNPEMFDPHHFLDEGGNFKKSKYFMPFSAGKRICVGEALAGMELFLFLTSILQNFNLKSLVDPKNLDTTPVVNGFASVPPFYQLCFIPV
Sequence of Cytochrome P450 2D6 (P10635 whole entry): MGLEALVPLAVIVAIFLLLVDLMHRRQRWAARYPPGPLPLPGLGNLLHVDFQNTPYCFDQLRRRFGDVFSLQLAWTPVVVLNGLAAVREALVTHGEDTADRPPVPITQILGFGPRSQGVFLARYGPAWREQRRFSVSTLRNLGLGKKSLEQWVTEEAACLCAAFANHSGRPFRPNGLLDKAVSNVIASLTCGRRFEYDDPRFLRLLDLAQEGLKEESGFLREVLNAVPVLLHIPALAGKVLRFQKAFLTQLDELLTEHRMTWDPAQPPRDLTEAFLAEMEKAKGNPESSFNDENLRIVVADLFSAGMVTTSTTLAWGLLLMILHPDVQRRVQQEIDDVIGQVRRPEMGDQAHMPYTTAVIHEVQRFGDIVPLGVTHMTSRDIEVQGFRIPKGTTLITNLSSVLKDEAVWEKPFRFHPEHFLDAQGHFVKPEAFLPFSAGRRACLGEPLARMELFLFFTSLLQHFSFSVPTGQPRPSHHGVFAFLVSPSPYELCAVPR
Sequence of Cytochrome P450 2C19 (P33261 whole entry): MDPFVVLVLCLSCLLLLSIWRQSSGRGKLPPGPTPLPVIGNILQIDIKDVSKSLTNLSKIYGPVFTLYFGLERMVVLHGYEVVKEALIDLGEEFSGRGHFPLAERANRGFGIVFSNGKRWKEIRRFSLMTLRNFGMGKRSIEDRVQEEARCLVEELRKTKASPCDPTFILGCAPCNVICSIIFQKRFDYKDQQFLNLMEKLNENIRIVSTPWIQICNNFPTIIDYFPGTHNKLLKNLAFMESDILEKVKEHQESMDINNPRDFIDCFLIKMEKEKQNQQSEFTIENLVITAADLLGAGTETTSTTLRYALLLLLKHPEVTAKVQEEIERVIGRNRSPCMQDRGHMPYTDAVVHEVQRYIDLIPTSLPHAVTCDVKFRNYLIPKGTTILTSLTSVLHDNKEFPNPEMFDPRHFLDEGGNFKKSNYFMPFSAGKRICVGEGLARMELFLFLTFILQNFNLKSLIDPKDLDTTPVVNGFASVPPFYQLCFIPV

The IC50 is the concentration at which inhibition is half-maximal. For the compound `Cc1n[nH]c(C)c1CCn1c(C)nc2c([N+](=O)[O-])c(Cl)c(Cl)cc21`, the IC50 at dCTP pyrophosphatase 1 came to 190 nM. Further, the t1/2 is on record as 6 min in the data set on Liver microsome and 7 min in [1].

Take `COc1ccc(Cn2c(C)nc3cc(C)c(C)cc32)cc1`: the IC50 at dCTP pyrophosphatase 1 was 22000 nM.

For the compound `Cc1nc2c([N+](=O)[O-])c(Cl)c(Cl)cc2n1Cc1ccc(-n2cccc2)cc1`, at dCTP pyrophosphatase 1, the 50% inhibitory concentration (IC50) turned out to be 331 nM.

For `Cc1nc2c([N+](=O)[O-])c(Cl)c(Cl)cc2n1-c1ccccc1`, the IC50 at dCTP pyrophosphatase 1 amounted to 85 nM.

On to `Cc1nc2c([N+](=O)[O-])c(Cl)c(Cl)cc2n1Cc1ccc(C=O)cc1`, for which the IC50 on dCTP pyrophosphatase 1 worked out at 133 nM.

Regarding `Cc1nc2c([N+](=O)[O-])c(Cl)c(Cl)cc2n1Cc1ccc(C#N)cc1`, the IC50 at dCTP pyrophosphatase 1 worked out at 165 nM.

For the compound `Cc1nc2c([N+](=O)[O-])c(Cl)c(Cl)cc2n1Cc1ccccc1B(O)O`, the IC50 on dCTP pyrophosphatase 1 was found to be 82 nM.

With `Cc1nc(Cn2c(C)nc3c([N+](=O)[O-])c(Cl)c(Cl)cc32)cs1`, the concentration for half-maximal inhibition (IC50) on dCTP pyrophosphatase 1 came to 240 nM.

For the compound `COc1ccc(Cn2cnc3ccccc32)cc1`, on dCTP pyrophosphatase 1, the half-maximal inhibitory concentration (IC50) is more than 100000 nM.

Regarding `Cc1nc2c([N+](=O)[O-])c(Cl)c(Cl)cc2n1C(=O)c1ccccc1`, the concentration for half-maximal inhibition (IC50) at dCTP pyrophosphatase 1 is 96 nM.

Take `COC(=O)c1ccc(Cn2c(C)nc3c([N+](=O)[O-])c(Cl)c(Cl)cc32)cc1`: the IC50 at dCTP pyrophosphatase 1 came out at 95 nM.

In the case of `Cc1nc2c([N+](=O)[O-])c(Cl)c(Cl)cc2n1Cc1ccc(Cl)nc1`, the IC50 on dCTP pyrophosphatase 1 was found to be 185 nM.

With `COc1ccc(Cn2c(C)nc3c([N+](=O)[O-])cccc32)cc1`, at dCTP pyrophosphatase 1, the IC50 was 1450 nM.

Regarding `COc1ccc(Cn2c(C)nc3c([N+](=O)[O-])c(Cl)c(Cl)cc32)cc1`, the t1/2 in the data set on Liver microsome was 30 min; in data set [1] it was 8 min.

By solubility is commonly meant how much of the substance goes into solution per volume. Consider `Cc1nc2c([N+](=O)[O-])c(Cl)c(Cl)cc2n1Cc1ccc(B(O)O)cc1`, for which the Stability entry in data set [2] is “Stable”. Also, the Activity result in data set [3], in data set [4], in data set [5] and in [6] was “Non-toxic” throughout. On dCTP pyrophosphatase 1, the concentration for half-maximal inhibition (IC50) is 46 nM. For the same compound, the figures for the t1/2 (with Liver microsome; in [1]) were 72 min and 197 min, respectively. For the same compound, the solubility in data set [7] is 52 µM (≈ 19.8 µg/mL). In addition, the remaining at 4 h in [8] worked out at 11%. In data set [9], the Fu is reported as 0.1%.

Consider `Cc1nc2c([N+](=O)[O-])c(Cl)c(Cl)cc2n1Cc1ccc(C(=O)O)cc1`, for which the concentration for half-maximal inhibition (IC50) on dCTP pyrophosphatase 1 was 73 nM.

In the case of `Cc1ccc(Cn2c(C)nc3c([N+](=O)[O-])c(Cl)c(Cl)cc32)cc1`, the IC50 on dCTP pyrophosphatase 1 worked out at 19 nM.

For the compound `Cc1nc2c([N+](=O)[O-])c(Cl)c(Cl)cc2n1CCc1ccc(B(O)O)cc1`, the IC50 at dCTP pyrophosphatase 1 amounted to 205 nM.

With `Cc1nc2c([N+](=O)[O-])c(Cl)c(Cl)cc2n1Cc1ccccc1`, the half-inhibitory concentration (IC50) at dCTP pyrophosphatase 1 was found to be 49 nM.

Consider `Cc1nc2c([N+](=O)[O-])c(Cl)c(Cl)cc2n1Cc1ccc(-n2cccn2)cc1`, for which the IC50 at dCTP pyrophosphatase 1 came out at 75 nM. The values for the t1/2 (in the data set on Liver microsome; in data set [1]) were 38 min and 22 min, respectively.

Regarding `O=[N+]([O-])c1c(Cl)c(Cl)cc2c1nc(C1CC1)n2Cc1ccc(B(O)O)cc1`, the t1/2 with Liver microsome amounted to 268 min; in data set [1], 13 min.

On to `CC(=O)Oc1ccc(Cn2c(C)nc3c([N+](=O)[O-])c(Cl)c(Cl)cc32)cc1`, for which the 50% inhibitory concentration (IC50) on dCTP pyrophosphatase 1 was 34 nM.

As to `COc1ccc(Cn2c(C)nc3c([N+](=O)[O-])c(C)c(C)cc32)cc1`, on dCTP pyrophosphatase 1, the half-inhibitory concentration (IC50) was found to be 57 nM.

`Cc1nc2cc(Cl)c(Cl)cc2n1Cc1ccc(B(O)O)cc1`: the half-maximal inhibitory concentration (IC50) at dCTP pyrophosphatase 1 amounted to 248 nM.

In the case of `COc1ccc(Cn2cnc3cc(C)c(C)cc32)cc1`, on dCTP pyrophosphatase 1, the half-inhibitory concentration (IC50) is more than 100000 nM.

A word on the Papp: it is a coefficient for how fast a substance crosses the barrier. As to `Cc1nc2c([N+](=O)[O-])c(Cl)c(Cl)cc2n1Cc1ccc(B2OC(=O)CN(C)CC(=O)O2)cc1`, the Ratio in data set [10] stood at 1.51. For the same compound, the 50% inhibitory concentration (IC50) at Cytochrome P450 1A2 was 377 µM; against Cytochrome P450 2C9, 1720 nM; at Cytochrome P450 2C19, 2930 nM; against Cytochrome P450 2D6, 16.8 µM; at Cytochrome P450 3A4 [11] it was 28.1 µM; on Cytochrome P450 3A4 [12] it was 21.9 µM. For the same compound, at dCTP pyrophosphatase 1, the 50% inhibitory concentration (IC50) came to 47 nM. The figures for the t1/2 (with Liver microsome; in data set [1]) were 11 min and 109 min, respectively. The compound also returned a solubility in data set [7] of more than 100 µM. Moreover, the remaining at 4 h in data set [8] turned out to be 86%. The Fu in [9] turned out to be 0.8%. The Papp in [13] is recorded as 8.66 ×10⁻⁶ cm/s.

In the case of `Cc1nc2c([N+](=O)[O-])c(Cl)c(Cl)cc2n1Cc1ccc(O)cc1`, the IC50 on dCTP pyrophosphatase 1 was found to be 21 nM. Also, the solubility in [7] turned out to be 11 µM (≈ 3.87 µg/mL). In addition, in data set [8], the remaining at 4 h was determined as 96%. In data set [9], this compound came in with a Fu of 0.7%.

With `COc1ccc(Cn2c(C)nc3ccccc32)cc1`, the concentration for half-maximal inhibition (IC50) on dCTP pyrophosphatase 1 was more than 100000 nM.

`Cc1cc2c(nc(C)n2C(C)c2ccccc2)c([N+](=O)[O-])c1C` (centres undefined): the 50% inhibitory concentration (IC50) at dCTP pyrophosphatase 1 came to 250 nM.

For `COc1ccc(Cn2c(C)nc3cc(Cl)c(Cl)cc32)cc1`, the concentration for half-maximal inhibition (IC50) on dCTP pyrophosphatase 1 stood at 12000 nM.

On to `Cc1nc2c([N+](=O)[O-])c(Cl)c(Cl)cc2n1Cc1cccc(B(O)O)c1`, for which, at dCTP pyrophosphatase 1, the IC50 turned out to be 46 nM.

With `Cc1nc2c([N+](=O)[O-])c(F)c(F)cc2n1Cc1ccc(B(O)O)cc1`, the 50% inhibitory concentration (IC50) at dCTP pyrophosphatase 1 turned out to be 529 nM.
